Assay results: article PMC4478806 (The FASEB Journal, 2015)
Several values for one entry are separate records, joined by “and”; a condition that tells them apart may be missing. Equal values may be shown once. Read-outs that look alike come from different tables or passages of the source.

Assays:
[1] = biological target: T1, human β1-adrenoceptors containing 11 amino acid mutations that convert TM4 to the β2-adrenoceptor residues (CHO-β1TM4 cells) (Homo sapiens, UniProt P08588, A184I/A187G/C180L/G177V/I185V/L178I/L195Q/T181M/V179I/V189T/W199Y); assay: 3 nM BODIPY-TMR-CGP dissociation in absence and presence of unlabeled ligands in CHO-β1TM4 cells; assay type: binding; details: infinite dilution, absence of unlabeled ligands
T1 construct: expressed in transfected cells
Protocol: Chinese hamster ovary (CHO)-K1 cells were used for all transient transfections. CHO-K1 cells stably expressing the secreted placental alkaline phosphatase reporter gene under the transcriptional control of a 6-cAMP response element promoter (CHO-CS cells) were used as a control, as appropriate. […] In BiFC experiments, membrane-associated BODIPY-TMR-CGP fluorescence was measured by drawing ROIs around membranes of cells that were identified to express BiFC-constrained homodimers by examination of the YFP fluorescence. […] The koff is the dissociation rate of BODIPY-TMR-CGP. […] Within this analysis, koff(fast) and Plateau was constrained to the average rate of dissociation and the average Plateau (in %) reached by BODIPY-TMR-CGP in control CHO-CS cells (i.e., cell not expressing the receptor of interest to determine the nonspecific BODIPY-TMR-CGP binding component).

[2] = biological target: T2, β1YFPN/β1YFPC BiFC-constrained β1-adrenoceptor homodimers (Homo sapiens, UniProt P08588); assay: 3 nM BODIPY-TMR-CGP dissociation at BiFC-constrained wild-type β1-adrenoceptor homodimers in CHO-K1 cells; assay type: binding; details: infinite dilution, absence of unlabeled ligands
T2 construct: to the C-terminal end of the full-length wild-type human β1-adrenoceptor; expressed in transfected cells; host or cells: CHO-K1 cells, transient co-transfection (pcDNA3.1)
Text: (§1) The SNAP-β1 construct was generated by fusing the SNAP-tag (New England Biolabs, Ipswich, MA, USA) to the N-terminal end of the wild-type human β1-adrenoceptor. The […] mutation ([7]) was introduced into the β1-YFPC and the SNAP-β1 sequence using the QuikChange site-directed mutagenesis kit (Agilent Technologies, Cheshire, United Kingdom). All sequences were confirmed by DNA sequencing. All receptor constructs were subcloned into pcDNA3.1 vectors. In bimolecular fluorescence complementation (BiFC) experiments, CHO-K1 cells were seeded onto coverslips on day 1 and transiently transfected with YFPN- and YFPC-tagged β1-adrenoceptor recombinant DNA (750 ng total) using Lipofectamine 2000 and Opti-MEM medium according to the manufacturer's instructions on day 2. […] In BiFC experiments, membrane-associated BODIPY-TMR-CGP fluorescence was measured by drawing ROIs around membranes of cells that were identified to express BiFC-constrained homodimers by examination of the YFP fluorescence. […] The koff is the dissociation rate of BODIPY-TMR-CGP. […] Within this analysis, koff(fast) and Plateau was constrained to the average rate of dissociation and the average Plateau (in %) reached by BODIPY-TMR-CGP in control CHO-CS cells (i.e., cell not expressing the receptor of interest to determine the nonspecific BODIPY-TMR-CGP binding component).

[3] = biological target: T3, human β1-adrenoceptor (Homo sapiens, UniProt P08588); details: cited from earlier work
T3 construct: expressed in transfected cells

[4] = biological target: T4, β1YFPN/β1D138AYFPC BiFC-constrained β1-adrenoceptor homodimers (Homo sapiens, UniProt P08588); assay: 3 nM BODIPY-TMR-CGP dissociation at BiFC-constrained wild-type/nonligand-binding β1-adrenoceptor homodimers in CHO-K1 cells; details: infinite dilution, absence of unlabeled ligands
T4 construct: to the C-terminal end of the full-length wild-type human β1-adrenoceptor; expressed in transfected cells; host or cells: CHO-K1 cells, transient co-transfection (pcDNA3.1)
Text: as §1

[5] = tested on: CHO-CS cells; assay: Association and dissociation of BODIPY-TMR-CGP in control CHO-CS cells (nonspecific binding); parameters: species or system Chinese hamster; details: for koff(fast) / konobs: CHO-CS cells
Text: Chinese hamster ovary (CHO)-K1 cells were used for all transient transfections. CHO-K1 cells stably expressing the secreted placental alkaline phosphatase reporter gene under the transcriptional control of a 6-cAMP response element promoter (CHO-CS cells) were used as a control, as appropriate. CHO-CS cell lines either expressing human wild-type β1-adrenoceptors (CHO-β1 cells; 1147 fmol/mg protein) ([6]) or human β1-adrenoceptors containing 11 amino acid mutations (G177V, L178I, V179I, C180L, T181M, A184I, I185V, A187G, V189T, L195Q, and W199Y that convert TM4 to the equivalent residues in the β2-adrenoceptor; CHO-β1TM4 cells) ([11]) were used. CHO-K1, CHO-CS, CHO-β1, and CHO-β1TM4 cells were grown at 37°C in CHO growth medium [DMEM/Ham's nutrient mixture F12 containing 10% (v/v) fetal calf serum and 2 mM L-glutamine] in a humidified 5% CO2/95% air atmosphere.
(§2) Live cell fluorescence imaging was performed on the Zeiss LSM510 laser scanning confocal microscope using a Zeiss Plan-Neofluar ×40 1.3 NA oil-immersion objective in conjunction with a temperature-controlled (37°C) perfusion system to allow the visualization and quantification of BODIPY-TMR-CGP dissociation kinetics under infinite dilution (ID) conditions in single living cells ([25]). Kinetic experiments were performed as described by May et al. ([25]). In brief, cells were grown to near confluence on 32 mm glass coverslips in 6-well plates 1 d prior to experimentation. On the day of experimentation, the coverslip was placed into a tightly closed imaging chamber on a heated (37°C) microscope stage, where it was connected to tubes to facilitate the flow of imaging buffer through the imaging chamber in the absence and presence of BODIPY-TMR-CGP and/or unlabeled ligands at a constant flow rate of ≥4 ml/min.
(§3) For association and dissociation kinetic experiments of 10–100 nM BODIPY-TMR-CGP in CHO-β1 and CHO-CS cells, the cells were exposed to imaging buffer only (30 s baseline fluorescence recording), then BODIPY-TMR-CGP (4.5 min association), and followed again by imaging buffer only (4.5 min dissociation). BODIPY-TMR-CGP was excited using a 543 nm helium-neon laser with emission collected through a 565 nm long-pass filter every 3 s throughout each experiment (512 × 512 pixels, averaging at 2 frames). The pinhole diameter (1 airy unit), laser power (2%), offset, and gain remained constant between the 3 BODIPY-TMR-CGP concentrations and the 2 cell lines used. Membrane-associated BODIPY-TMR-CGP fluorescence was measured by drawing regions of interest (ROIs) around the membranes of 10 single cells of each imaged coverslip, and changes in the average pixel intensity values for each ROI over time were analyzed to obtain association and dissociation rates for each experiment.
(§4) GraphPad Prism 5.0 (GraphPad Software, San Diego, CA, USA) was used to fit all data presented in this study. Association kinetic data were fitted using the following monoexponential association equation: [drawing 1] where Y0 is the level of BODIPY-TMR-CGP binding at time t = 0 (i.e., baseline fluorescence), Plateau is the level of BODIPY-TMR-CGP binding at infinite time, and konobs is the rate of observed association.
The koff is the dissociation rate of BODIPY-TMR-CGP. […]

[6] = biological target: T5, SNAP-β1D138A β1-adrenoceptor (Homo sapiens, UniProt P08588, D138A); assay: Confocal imaging of 3 nM BODIPY-TMR-CGP binding to SNAP-tagged D138A β1-adrenoceptor in CHO-K1 cells; details: CHO-K1 cells transiently transfected with SNAP-β1D138A, 10 min
T5 construct: expressed in transfected cells; host or cells: CHO-K1 cells, transient transfection (pcDNA3.1)
Text: The β1-yellow fluorescent protein (YFP)N and β1-YFPC receptor constructs were generated by fusing either the N-terminal fragment of YFP (YFPN; amino acids 1–155) or the C-terminal fragment of YFP (YFPC; amino acids 156–239) to the C-terminal end of the full-length wild-type human β1-adrenoceptor. The SNAP-β1 construct was generated by fusing the SNAP-tag (New England Biolabs, Ipswich, MA, USA) to the N-terminal end of the wild-type human β1-adrenoceptor. The D138A mutation ([7]) was introduced into the β1-YFPC and the SNAP-β1 sequence using the QuikChange site-directed mutagenesis kit (Agilent Technologies, Cheshire, United Kingdom). All sequences were confirmed by DNA sequencing. All receptor constructs were subcloned into pcDNA3.1 vectors.
Confocal microscopy was performed using a Zeiss LSM710 laser scanning microscope with a ×40 1.3 NA oil immersion lens. CHO-K1 cells were grown to 70% confluence in 8-well Labtek borosilicate chambered-cover glasses (Nalgene Nunc International, Fisher Scientific) and transiently transfected with SNAP-β1 or SNAP-β1D138A recombinant DNA using Lipofectamine 2000 and Opti-MEM medium according to the manufacturer’s instructions. […]

[7] = biological target: T3, human β1-adrenoceptor; assay: 3 nM BODIPY-TMR-CGP kinetics and influence of unlabeled ligands on its dissociation rate in CHO-β1 cells under infinite dilution; assay type: binding
[8] = biological target: T3, human β1-adrenoceptor; assay: Association and dissociation kinetics of 10, 30 and 100 nM BODIPY-TMR-CGP in CHO-β1 cells (confocal perfusion system, single living cells); assay type: binding; details: for pKD: from kon and koff(slow); for koff(fast): nonspecific component constrained to average CHO-CS dissociation rate
Protocol: as §2, §3, §4
The koff is the dissociation rate of BODIPY-TMR-CGP. Where a level of nonspecific binding >10% of total binding was observed, the dissociation kinetic data were fitted to a 2-phase exponential decay function [drawing 5] where Plateau and t are as defined above, and Spanfast and Spanslow represent the proportion of Y0-Plateau accounted for by the fast (koff(fast)) and slow (koff(slow)) dissociation rate, respectively. Within this analysis, koff(fast) and Plateau was constrained to the average rate of dissociation and the average Plateau (in %) reached by BODIPY-TMR-CGP in control CHO-CS cells (i.e., cell not expressing the receptor of interest to determine the nonspecific BODIPY-TMR-CGP binding component).

[9] = 3 nM BODIPY-TMR-CGP, based on affinity from functional assays
[10] = 3 nM BODIPY-TMR-CGP, global fit of association and dissociation traces

T3 sequence (P08588 whole entry): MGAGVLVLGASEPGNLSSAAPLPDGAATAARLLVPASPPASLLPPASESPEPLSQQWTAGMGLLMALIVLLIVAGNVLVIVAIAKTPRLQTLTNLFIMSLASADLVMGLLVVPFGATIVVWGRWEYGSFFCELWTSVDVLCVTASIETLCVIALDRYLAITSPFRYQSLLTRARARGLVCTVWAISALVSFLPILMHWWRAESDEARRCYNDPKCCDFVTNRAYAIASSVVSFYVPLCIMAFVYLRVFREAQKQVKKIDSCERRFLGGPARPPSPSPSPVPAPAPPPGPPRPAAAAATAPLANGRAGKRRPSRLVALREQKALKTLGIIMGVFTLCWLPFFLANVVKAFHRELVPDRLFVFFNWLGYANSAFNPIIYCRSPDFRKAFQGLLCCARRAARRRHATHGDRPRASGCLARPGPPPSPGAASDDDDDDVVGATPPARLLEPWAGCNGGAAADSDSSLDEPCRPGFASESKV
T2 sequence (P08588 whole entry): as above
T2 sequence (P08588 whole entry): as above
T4 sequence (P08588 whole entry): as above
T4 sequence (P08588 whole entry D138A partner): as the sequence (P08588 whole entry) above, with D138A counted along it
T1 sequence (P08588 whole entry G177V/L178I/V179I/C180L/T181M/A184I/I185V/A187G/V189T/L195Q/W199Y): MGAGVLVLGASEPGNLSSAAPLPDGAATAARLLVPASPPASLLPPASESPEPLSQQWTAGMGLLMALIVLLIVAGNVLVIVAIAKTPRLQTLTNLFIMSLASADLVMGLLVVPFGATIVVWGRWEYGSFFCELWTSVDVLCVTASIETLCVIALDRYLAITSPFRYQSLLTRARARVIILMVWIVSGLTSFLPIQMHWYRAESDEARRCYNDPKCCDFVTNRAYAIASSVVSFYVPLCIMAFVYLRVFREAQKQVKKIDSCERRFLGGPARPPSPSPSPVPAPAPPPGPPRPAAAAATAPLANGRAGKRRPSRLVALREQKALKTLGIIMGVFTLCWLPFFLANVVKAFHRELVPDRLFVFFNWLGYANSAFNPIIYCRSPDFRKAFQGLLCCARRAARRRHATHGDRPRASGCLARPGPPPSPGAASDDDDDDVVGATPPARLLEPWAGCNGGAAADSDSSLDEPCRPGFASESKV
T5 sequence (P08588 whole entry D138A): as the sequence (P08588 whole entry) above, with D138A counted along it

Q: For “bordifluoropyrromethane-tetramethylrhodamine-(±)CGP 12177 [BODIPY-TMR-CGP]”, which “koff of 3 nM BODIPY-TMR-CGP” value [1] is on record?
A: The value was 0.0011 ± 8.3e-05 s⁻¹ and 0.0012 ± 0.00033 s⁻¹.

Q: And the “koff of 3 nM BODIPY-TMR-CGP” value [2]?
A: Its value is 0.00033 ± 0.00017 s⁻¹ and 0.00033 s⁻¹.

Q: And the “occupancy of the high-affinity β1-adrenoceptor conformation” value [3, 9]?
A: The value was roughly 86%.

Q: And the “occupancy of the secondary low-affinity β1-adrenoceptor conformation” value [3, 9]?
A: Its value is roughly 3%.

Q: And the Kd ([3]; functional studies, read-out: affinity value for the high-affinity (orthosteric) β1-adrenoceptor conformation)?
A: The Kd was 0.0006 µM.

Q: What about the Kd ([3]; read-out: affinity value for the low-affinity β1-adrenoceptor conformation) of the same substance?
A: Its Kd is 0.087 µM.

Q: And the “koff of 3 nM BODIPY-TMR-CGP” value [4]?
A: The value was 0.0009 ± 0.000183 s⁻¹ and 0.00083 ± 0.00017 s⁻¹.

Q: What about the “koff(fast)” value ([5]; 30 nM BODIPY-TMR-CGP) of the same substance?
A: The value was 0.041 ± 0.008 s⁻¹.

Q: What about the konobs ([5]; 30 nM BODIPY-TMR-CGP) of the same substance?
A: The konobs was 1.40 ± 0.26 min⁻¹.

Q: What about the “koff(fast)” value ([5]; 100 nM BODIPY-TMR-CGP) of the same substance?
A: The value was 0.0412 ± 0.00217 s⁻¹.

Q: And the konobs ([5]; 100 nM BODIPY-TMR-CGP)?
A: Its konobs is 1.62 ± 0.13 min⁻¹.

Q: What about the “average dissociation rate obtained in CHO-CS cells” value ([5]; average over BODIPY-TMR-CGP concentrations, used as constraint for koff(fast)) of the same substance?
A: The value was 2.47 min⁻¹.

Q: And the “binding of 3 nM BODIPY-TMR-CGP (membrane fluorescence)” value [6]?
A: The value was “no binding”.

Q: And the “association rate constant (kon)” value [7, 10]?
A: The value was 5.27 ± 0.53 × 10^7 M^−1⋅min^−1.

Q: What about the “dissociation rate (koff)” value [7, 10] of the same substance?
A: The value was 0.0013 ± 0.00017 s⁻¹.

Q: And the pKD [7, 10]?
A: Its pKD is 8.83 ± 0.06.

Q: And the “koff of 3 nM BODIPY-TMR-CGP” value ([7]; infinite dilution, absence of unlabeled ligands, 1-phase dissociation)?
A: The value was 0.0015 ± 0.00017 s⁻¹ and 0.0015 s⁻¹.

Q: And the kon ([8]; 10 nM BODIPY-TMR-CGP)?
A: Its kon is 5.29 ± 0.79 ×10^7 M^−1⋅min^−1.

Q: And the konobs ([8]; 10 nM BODIPY-TMR-CGP)?
A: Its konobs is 0.63 ± 0.08 min⁻¹.

Q: And the pKD ([8]; 10 nM BODIPY-TMR-CGP)?
A: The pKD was 8.71 ± 0.05.

Q: What about the “koff(slow)” value ([8]; 10 nM BODIPY-TMR-CGP, monoexponential dissociation) of the same substance?
A: The value was 0.09 ± 0.01 min⁻¹.

Q: And the kon ([8]; 30 nM BODIPY-TMR-CGP)?
A: Its kon is 5.17 ± 0.28 ×10^7 M^−1⋅min^−1.

Q: And the konobs ([8]; 30 nM BODIPY-TMR-CGP)?
A: Its konobs is 1.64 ± 0.08 min⁻¹.

Q: What about the “koff(slow)” value ([8]; 30 nM BODIPY-TMR-CGP, 2-phase decay) of the same substance?
A: The value was 0.09 ± 0.01 min⁻¹.

Q: What about the pKD ([8]; 30 nM BODIPY-TMR-CGP) of the same substance?
A: The pKD was 8.77 ± 0.08.

Q: And the “koff(fast)” value ([8]; 30 nM BODIPY-TMR-CGP)?
A: Its value is 0.0412 s⁻¹.

Q: And the kon ([8]; 100 nM BODIPY-TMR-CGP)?
A: Its kon is 2.94 ± 0.12^*^,^# ×10^7 M^−1⋅min^−1.

Q: What about the konobs ([8]; 100 nM BODIPY-TMR-CGP) of the same substance?
A: The konobs was 3.08 ± 0.11 min^−1 and 3.08 ± 0.11^*^,^# min^−1.

Q: And the “koff(slow)” value ([8]; 100 nM BODIPY-TMR-CGP, 2-phase decay)?
A: The value was 0.14 ± 0.02^*^,^# min^−1.

Q: What about the pKD ([8]; 100 nM BODIPY-TMR-CGP) of the same substance?
A: The pKD was 8.32 ± 0.06^*^,^#.

Q: What about the “koff(fast)” value ([8]; 100 nM BODIPY-TMR-CGP) of the same substance?
A: Its value is 0.0412 s⁻¹.
